The text below walks through data of patent US10544150B2, “NK-3 receptor selective antagonist compounds, pharmaceutical composition and methods for use in NK-3 receptors mediated disorders” (Ogeda SA, priority 2010, dated 2020).

The structures appear in SMILES notation.

Sequence of human NK-3 receptor (P29371 whole entry): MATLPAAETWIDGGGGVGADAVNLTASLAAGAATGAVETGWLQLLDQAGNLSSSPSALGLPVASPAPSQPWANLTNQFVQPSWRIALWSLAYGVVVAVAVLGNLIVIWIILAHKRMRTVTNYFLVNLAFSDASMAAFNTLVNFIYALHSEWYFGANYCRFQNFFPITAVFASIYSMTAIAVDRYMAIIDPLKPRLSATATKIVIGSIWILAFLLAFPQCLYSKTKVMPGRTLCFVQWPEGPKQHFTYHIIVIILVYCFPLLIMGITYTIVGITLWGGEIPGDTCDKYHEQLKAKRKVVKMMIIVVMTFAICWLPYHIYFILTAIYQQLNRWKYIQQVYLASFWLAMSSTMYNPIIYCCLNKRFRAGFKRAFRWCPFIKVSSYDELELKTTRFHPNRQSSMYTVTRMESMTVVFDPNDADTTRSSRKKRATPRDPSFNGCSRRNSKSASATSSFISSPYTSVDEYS

The target in the assay is human NK-3 receptor (Homo sapiens (Human), UniProt P29371). Nature of the assay: 3H-SB222200 binding competition assay with human NK-3 receptor. Conditions: 3H-SB222200 displacement, CHO cell membranes expressing human NK3 receptor; read-out: Ki range. The method, then:
The affinity of compounds of the invention for the tachykinin receptors was determined by measuring the ability of the compounds of the invention to displace a radiolabeled ligand from its specifics binding site.
^3H-SB222200 Binding Competition Assay with Human NK-3 Receptor
The ability of the compounds of the invention to inhibit the binding of the NK-3 receptor selective antagonist SB222200 was assessed by an in vitro radioligand binding assay. Membranes were prepared from Chinese hamster ovary recombinant cells which express the human NK3 receptor. The membranes were incubated with 5 nM ^3H-SB222200_(ARC) in a HEPES 25 mM/NaCl 0.1M/CaCl2 1 mM/MgCl2 5 Mm/BSA 0.5%/Saponin 10 μg/ml buffer at pH 7.4 and various concentrations of the compounds of the invention. The amount of tritiated SB222200 bound to the receptor was determined after filtration by the quantification of membrane associated radioactivity using the TopCount-NXT reader (Packard). […] In Table 3 biological results obtained using the ^3H-SB222200 binding competition assay with compounds of the invention are set out in tabulated form. In this table the calculated Ki is given. The Ki value obtained (in accordance with the protocol set forth above) is represented as follows: “+++” means Ki<500 nM; “++” means 500 nM≤Ki≤1 μM; “+” means 1 μM<Ki≤5 μM; “#” means Ki>5 μM.
One may read the Ki as the equilibrium dissociation constant of an inhibitor or competing ligand from its target. For `O=C(c1ccc(F)cc1)N1CCn2c(nnc2-c2nc3c(s2)CCCC3)C1` [Compound 27, (4-fluorophenyl)(3-(4,5,6,7-tetrahydrobenzo[d]thiazol-2-yl)-5,6-dihydro-[1,2,4]triazolo[4,3-a]pyrazin-7(8H)-yl)methanone], the Ki was below 0.5 µM.

As for `O=C(c1ccc(F)cc1)N1CCn2c(nnc2-c2csc(-c3cccc(C(F)(F)F)c3)n2)C1` [Compound 28, (4-fluorophenyl)(3-(2-(3-(trifluoromethyl)phenyl)thiazol-4-yl)-5,6-dihydro-[1,2,4]triazolo[4,3-a]pyrazin-7(8H)-yl)methanone], the Ki was below 0.5 µM.

Regarding `O=C(c1ccc(F)cc1)N1CCn2c(nnc2-c2csc(-c3ccc(F)cc3F)n2)C1` [Compound 29, (3-(2-(2,4-difluorophenyl)thiazol-4-yl)-5,6-dihydro-[1,2,4]triazolo[4,3-a]pyrazin-7(8H)-yl)(4-fluorophenyl)methanone], the Ki is below 0.5 µM.

Turning to `O=C(c1ccc(F)cc1)N1CCn2c(nnc2-c2csc(-c3ccc(F)cc3)n2)C1` [Compound 32, (4-fluorophenyl)(3-(2-(4-fluorophenyl)thiazol-4-yl)-5,6-dihydro-[1,2,4]triazolo[4,3-a]pyrazin-7(8H)-yl)methanone], the Ki is below 0.5 µM.

Regarding `O=C(c1ccc(F)cc1)N1CCn2c(nnc2-c2csc(N3CCCCC3)n2)C1` [Compound 33, (4-fluorophenyl)(3-(2-(piperidin-1-yl)thiazol-4-yl)-5,6-dihydro-[1,2,4]triazolo[4,3-a]pyrazin-7(8H)-yl)methanone], the Ki was below 0.5 µM.

Consider `O=C(c1ccc(F)cc1)N1CCn2c(nnc2-c2csc(N3CCN(c4ccccc4)CC3)n2)C1` [Compound 34, (4-fluorophenyl)(3-(2-(4-phenylpiperazin-1-yl)thiazol-4-yl)-5,6-dihydro-[1,2,4]triazolo[4,3-a]pyrazin-7(8H)-yl)methanone], for which the Ki is below 0.5 µM.

Consider `O=C(c1ccc(F)cc1)N1CCn2c(nnc2-c2cccc(N3CCCC3)n2)C1` [Compound 37, (4-fluorophenyl)(3-(6-(pyrrolidin-1-yl)pyridin-2-yl)-5,6-dihydro-[1,2,4]triazolo[4,3-a]pyrazin-7(8H)-yl)methanone], for which the Ki is below 0.5 µM.

For the compound `O=C(c1ccc(F)cc1)N1CCn2c(nnc2-c2cccc(N3CCOCC3)n2)C1` [Compound 38, (4-fluorophenyl)(3-(6-morpholinopyridin-2-yl)-5,6-dihydro-[1,2,4]triazolo[4,3-a]pyrazin-7(8H)-yl)methanone], the Ki is below 0.5 µM.

In the case of `O=C(c1ccc(F)cc1)N1CCn2c(nnc2-c2cccc(C(F)(F)F)n2)C1` [Compound 39, (4-fluorophenyl)(3-(6-(trifluoromethyl)pyridin-2-yl)-5,6-dihydro-[1,2,4]triazolo[4,3-a]pyrazin-7(8H)-yl)methanone], the Ki lay in the range of 0.5 to 1 µM.

As to `COc1ccc(-c2nc(-c3nnc4n3CCN(C(=O)c3ccc(F)cc3)C4)cs2)cc1OC` [Compound 40, (3-(2-(3,4-dimethoxyphenyl)thiazol-4-yl)-5,6-dihydro-[1,2,4]triazolo[4,3-a]pyrazin-7(8H)-yl)(4-fluorophenyl)methanone], the inhibitory constant (Ki) is below 0.5 µM.

With `O=C(c1ccc(F)cc1)N1CCn2c(-c3csc(-c4ccccc4)n3)nnc2C1c1ccc(F)cc1` (centres unmarked) [Compound 41, (4-fluorophenyl)(8-(4-fluorophenyl)-3-(2-phenylthiazol-4-yl)-5,6-dihydro-[1,2,4]triazolo[4,3-a]pyrazin-7(8H)-yl)methanone], the Ki is below 0.5 µM.

In the case of `CC(C)C1c2nnc(-c3csc(-c4ccccc4)n3)n2CCN1C(=O)c1ccc(F)cc1` (centres unmarked) [Compound 43, (4-fluorophenyl)(8-isopropyl-3-(2-phenylthiazol-4-yl)-5,6-dihydro-[1,2,4]triazolo[4,3-a]pyrazin-7(8H)-yl)methanone], the Ki lay within 1 to 5 µM.

In the case of `C[C@@H]1c2nnc(-c3ccccn3)n2CCN1C(=O)c1ccc(F)cc1` [Compound 44, (R)-(4-fluorophenyl)(8-methyl-3-(pyridin-2-yl)-5,6-dihydro-[1,2,4]triazolo[4,3-a]pyrazin-7(8H)-yl)methanone], the Ki lay in the range of 1 to 5 µM.

As to `C[C@@H]1c2nnc(-c3csc(-c4ccccc4)n3)n2CCN1C(=O)c1ccc(F)cc1` [Compound 45, (R)-(4-fluorophenyl)(8-methyl-3-(2-phenylthiazol-4-yl)-5,6-dihydro-[1,2,4]triazolo[4,3-a]pyrazin-7(8H)-yl)methanone], the Ki was below 0.5 µM.

Take `CC1c2nnc(-c3csc(N4CCOCC4)n3)n2CCN1C(=O)c1ccc(-c2ccccc2)cc1` (centres unmarked) [Compound 46, [1,1′-biphenyl]-4-yl(8-methyl-3-(2-morpholinothiazol-4-yl)-5,6-dihydro-[1,2,4]triazolo[4,3-a]pyrazin-7(8H)-yl)methanone]: the Ki is below 0.5 µM.

Turning to `O=C(c1ccc(F)cc1)N1CCn2c(nnc2-c2coc(-c3ccccc3)n2)C1` [Compound 47, (4-fluorophenyl)(3-(2-phenyloxazol-4-yl)-5,6-dihydro-[1,2,4]triazolo[4,3-a]pyrazin-7(8H)-yl)methanone], the Ki is below 0.5 µM.

For the compound `CC1c2nnc(-c3coc(-c4ccccc4)n3)n2CCN1C(=O)c1ccc(F)cc1` (centres unmarked) [Compound 48, (4-fluorophenyl)(8-methyl-3-(2-phenyloxazol-4-yl)-5,6-dihydro-[1,2,4]triazolo[4,3-a]pyrazin-7(8H)-yl)methanone], the Ki is below 0.5 µM.

Regarding `CC1c2nnc(-c3coc(-c4ccccc4)n3)n2CCN1C(=O)c1ccc(-c2ccccc2)cc1` (centres unmarked) [Compound 49, [1,1′-biphenyl]-4-yl(8-methyl-3-(2-phenyloxazol-4-yl)-5,6-dihydro-[1,2,4]triazolo[4,3-a]pyrazin-7(8H)-yl)methanone], the Ki is below 0.5 µM.

Take `O=C(c1ccc(-c2ccccc2)cc1)N1CCn2c(nnc2-c2coc(-c3ccccc3)n2)C1` [Compound 50, [1,1′-biphenyl]-4-yl(3-(2-phenyloxazol-4-yl)-5,6-dihydro-[1,2,4]triazolo[4,3-a]pyrazin-7(8H)-yl)methanone]: the Ki is below 0.5 µM.

Consider `O=C(c1ccc(F)cc1)N1CCn2c(-c3csc(-c4ccccc4)n3)nnc2C1CCO` (centres unmarked) [Compound 51, (4-fluorophenyl)(8-(2-hydroxyethyl)-3-(2-phenylthiazol-4-yl)-5,6-dihydro-[1,2,4]triazolo[4,3-a]pyrazin-7(8H)-yl)methanone], for which the Ki was below 0.5 µM.

As to `CC1c2nnc(-c3csc(N4CCOCC4)n3)n2CCN1C(=O)c1ccc(F)cc1` (centres unmarked) [Compound 52, (4-fluorophenyl)(8-methyl-3-(2-morpholinothiazol-4-yl)-5,6-dihydro-[1,2,4]triazolo[4,3-a]pyrazin-7(8H)-yl)methanone], the Ki is below 0.5 µM.

On to `CC1c2nnc(-c3csc(N4CCOCC4)n3)n2CCN1C(=O)c1ccc(-c2ccc(F)cc2)cc1` (centres unmarked) [Compound 53, (4′-fluoro-[1,1′-biphenyl]-4-yl)(8-methyl-3-(2-morpholinothiazol-4-yl)-5,6-dihydro-[1,2,4]triazolo[4,3-a]pyrazin-7(8H)-yl)methanone], for which the Ki was below 0.5 µM.

For the compound `O=C(c1ccc(-c2cccs2)cc1)N1CCn2c(nnc2-c2csc(-c3ccccc3)n2)C1` [Compound 54, (3-(2-phenylthiazol-4-yl)-5,6-dihydro-[1,2,4]triazolo[4,3-a]pyrazin-7(8H)-yl)(4-(thiophen-2-yl)phenyl)methanone], the Ki is below 0.5 µM.

With `O=C(c1ccc(-c2cccs2)cc1)N1CCn2c(nnc2-c2csc(N3CCOCC3)n2)C1` [Compound 55, (3-(2-morpholinothiazol-4-yl)-5,6-dihydro-[1,2,4]triazolo[4,3-a]pyrazin-7(8H)-yl)(4-(thiophen-2-yl)phenyl)methanone], the Ki is below 0.5 µM.

On to `CC1c2nnc(-c3csc(N4CCOCC4)n3)n2CCN1C(=O)c1ccc(-c2cccs2)cc1` (centres unmarked) [Compound 56, (8-methyl-3-(2-morpholinothiazol-4-yl)-5,6-dihydro-[1,2,4]triazolo[4,3-a]pyrazin-7(8H)-yl)(4-(thiophen-2-yl)phenyl)methanone], for which the Ki is below 0.5 µM.

On to `O=C(c1ccc(F)cc1)N1CCn2c(nnc2-c2nc(-c3ccccc3)cs2)C1` [Compound 57, (4-fluorophenyl)(3-(4-phenylthiazol-2-yl)-5,6-dihydro-[1,2,4]triazolo[4,3-a]pyrazin-7(8H)-yl)methanone], for which the Ki is below 0.5 µM.

For `O=C(c1ccc(F)cc1)N1CCn2c(nnc2-c2nc3ccccc3s2)C1` [Compound 59, (3-(benzo[d]thiazol-2-yl)-5,6-dihydro-[1,2,4]triazolo[4,3-a]pyrazin-7(8H)-yl)(4-fluorophenyl)methanone], the Ki is below 0.5 µM.

As to `CC1(C)c2nnc(-c3csc(-c4ccccc4)n3)n2CCN1C(=O)c1ccc(F)cc1` [Compound 60, (8,8-dimethyl-3-(2-phenylthiazol-4-yl)-5,6-dihydro-[1,2,4]triazolo[4,3-a]pyrazin-7(8H)-yl)(4-fluorophenyl)methanone], the Ki was below 0.5 µM.

For `CC1c2nnc(-c3ccc4ccccc4n3)n2CCN1C(=O)c1ccc(F)cc1` (centres unmarked) [Compound 61, (4-fluorophenyl)(8-methyl-3-(quinolin-2-yl)-5,6-dihydro-[1,2,4]triazolo[4,3-a]pyrazin-7(8H)-yl)methanone], the Ki is below 0.5 µM.
